One series concerns the target BCL-XL (Homo sapiens (Human), UniProt Q07817). The experiment in a line: Protein-protein interaction assay BCL-XL/Bad BH3 peptide (BCL-XL assay, TR-FRET). It is filed as binding. Particulars: read-out: BCL-XL Assay IC50 (median). The method, boiled down:
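TR-FRET competition: 1 nM His-tagged human BCL-XL (1-212) versus 1 nM biotin-PEG Bad BH3 peptide tracer, buffer 50 mM Tris pH 7, NaCl, KF, DTT. Compound preincubated with protein 10 min at 22 °C; read after 1 h at 22 °C plus overnight at 4 °C. IC50 by 4-parameter regression of normalized ratios.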

The test system of series [1] is SUDHL5 cells. The experiment in a line: Induction of caspase-3/7 activity in SUDHL5 cells (Assay 4). The series is classed as cell-based. The procedure, abridged: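 Read-out: Caspase-Glo 3/7 luminescence (1 h, 37 °C) after cells, plated overnight, were treated with compounds for 3 h at 37 °C. Signal corrected for cell-free medium background and expressed relative to DMSO control mean.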

Series [2] deals with SUDHL5 cells. Briefly: Induction of cytotoxicity in SUDHL5 cells (Assay 6). It is filed as cell-based. Particulars: 5 h, CellTiter-Glo, read-out: Cytotox SUDHL5 IC50 (median). The method, boiled down: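 Following overnight seeding at 37 °C, cells are treated with compound for 5 h, after which CellTiter-Glo reagent is added and luminescence measured following a 15 min room-temperature shake.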
(In general: Cellular ATP, detected with luciferase, serves as a proxy for viable cell number.)

The subject of another series is HMC-1-8 cells. The experiment in a line: Antiproliferation assay HMC-1-8 (Assay 7). The series is classed as cell-based. The procedure, abridged: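 Cell proliferation was measured with CellTiter-Glo luminescence after 72 h compound exposure at 37 °C. A day 0 reference plate, read after overnight incubation, set the time-zero value. IC50s were calculated relative to day 0 (CI) and DMSO control (C0) values.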

The mark [3] stands for this setting: caspase-3/7 induction, 3 h; read-out: Caspase SUDHL5 EC50 (median).
The mark [4] stands for this setting: 72 h, CellTiter-Glo; read-out: Antiproli HMC-1-8 IC50 median.
Where [5] appears, read: read-out: Caspase SUDHL5 EC50 (median); caspase-3/7 induction, 3 h.
Setting [6] is: read-out: Antiproli HMC-1-8 IC50 median; 72 h, CellTiter-Glo.
[7] abbreviates: Homo sapiens, SU-DHL-5, 3 h, caspase-3/7 induction, 3 h; read-out: Caspase SUDHL5 EC50 (median).
[8] abbreviates: 72 h, CellTiter-Glo, read-out: Antiproli HMC-1-8 IC50 median.

Where a name gives a salt, the structure may show the parent alone. Read-outs that look alike come from different tables or passages of the source. Bounds are passed on as bounds.

Chain of BCL-XL (Q07817 1-212): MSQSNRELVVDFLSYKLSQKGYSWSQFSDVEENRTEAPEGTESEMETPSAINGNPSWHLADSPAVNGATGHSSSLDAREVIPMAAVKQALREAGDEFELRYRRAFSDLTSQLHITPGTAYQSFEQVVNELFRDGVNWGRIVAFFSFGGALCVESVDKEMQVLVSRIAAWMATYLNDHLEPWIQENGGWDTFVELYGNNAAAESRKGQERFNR

The term IC50 denotes the concentration that gives 50% inhibition. The term EC50 denotes the concentration needed to bring the measured effect to its halfway point. For the molecule `CCc1c2c(nn1C)C(CCO)OCCCCn1c(C(=O)O)c(CCCOc3cccc4cc(F)ccc34)c3ccc(Cl)c-2c31` (single isomer, unassigned; enantiomer 1) [Example 45, (+)-4-chloro-3-ethyl-7-{3-[(6-fluoronaphthalen-1-yl)oxy]propyl}-15-(2-hydroxyethyl)-2-methyl-2,10,11,12,13,15-hexahydropyrazolo[4′,3′:9,10][1,6]oxazacycloundecino[8,7,6-hi]indole-8-carboxylic Acid (Enantiomer 1)], the IC50 on BCL-XL was > 20 µM; in the series on SUDHL5 cells [2] it was 0.076 µM; in the series on HMC-1-8 cells (setting [4]) it was 2.14 µM. The EC50 with SUDHL5 cells [1] (setting [3]) amounted to 0.019 µM.
Take `CCc1c2c(nn1C)C(CCN1CCOCC1)OCCCCn1c(C(=O)O)c(CCCOc3cccc4cc(F)ccc34)c3ccc(F)c-2c31` (single isomer, unassigned; enantiomer 1) [Example 50, (+)-3-ethyl-4-fluoro-7-{3-[(6-fluoronaphthalen-1-yl)oxy]propyl}-2-methyl-15-[2-(morpholin-4-yl)ethyl]-2,10,11,12,13,15-hexahydropyrazolo[4′,3′:9,10][1,6]oxazacycloundecino[8,7,6-hi]indole-8-carboxylic Acid (Enantiomer 1)]: the figures for the IC50 at BCL-XL, in the series with SUDHL5 cells [2] and in the series on HMC-1-8 cells (setting [4]) were > 20 µM, 0.016 µM and 0.392 µM, respectively. The EC50 in the series with SUDHL5 cells [1] (setting [3]) was determined as 0.013 µM.
`CCc1c2c(nn1C)C(CC(C)(C)O)OCCCCn1c(C(=O)O)c(CCCOc3cccc4cc(F)ccc34)c3ccc(Cl)c-2c31` (single isomer, unassigned; enantiomer 1) [Example 53, (+)-4-chloro-3-ethyl-7-{3-[(6-fluoronaphthalen-1-yl)oxy]propyl}-15-(2-hydroxy-2-methylpropyl)-2-methyl-2,10,11,12,13,15-hexahydropyrazolo[4′,3′:9,10][1,6]oxazacycloundecino[8,7,6-hi]indole-8-carboxylic Acid—N-ethylethanamine Salt (Enantiomer 1)]: the half-inhibitory concentration (IC50) is 11 µM on BCL-XL, 0.095 µM in the series with SUDHL5 cells [2] and 0.983 µM with HMC-1-8 cells (setting [6]). Further, in the series with SUDHL5 cells [1] (setting [5]), the EC50 worked out at 0.076 µM.
Regarding `Cc1c2c(nn1C)C(CCN1CCOCC1)OCCCCn1c(C(=O)O)c(CCCOc3cccc4cc(F)ccc34)c3ccc(Cl)c-2c31` (single isomer, unassigned; enantiomer 2) [Example 18, 4-chloro-7-{3-[(6-fluoronaphthalen-1-yl)oxy]propyl}-2,3-dimethyl-15-[2-(morpholin-4-yl)ethyl]-2,10,11,12,13,15-hexahydropyrazolo[4′,3′:9,10][1,6]oxazacycloundecino[8,7,6-hi]indole-8-carboxylic Acid (Enantiomer 2)], the IC50 on BCL-XL was > 20 µM; in the series on SUDHL5 cells [2] (Homo sapiens, SU-DHL-5, 5 h), 0.53 µM; in the series on HMC-1-8 cells (setting [8]), 12.5 µM. Further, the EC50 in the series on SUDHL5 cells [1] (setting [7]) turned out to be 0.53 µM.
As for `Cc1c2c(nn1C)C(CCN1CCOCC1)OCCCCn1c(C(=O)O)c(CCCOc3cccc4cc(F)ccc34)c3ccc(F)c-2c31` (single isomer, unassigned; enantiomer 2) [Example 21, 4-fluoro-7-{3-[(6-fluoronaphthalen-1-yl)oxy]propyl}-2,3-dimethyl-15-[2-(morpholin-4-yl)ethyl]-2,10,11,12,13,15-hexahydropyrazolo[4′,3′:9,10][1,6]oxazacycloundecino[8,7,6-hi]indole-8-carboxylic Acid (Enantiomer 2)], the IC50 on BCL-XL is > 20 µM; in the series with SUDHL5 cells [2] (Homo sapiens, SU-DHL-5, 5 h), 12 µM; in the series with HMC-1-8 cells (setting [8]) it was 13.3 µM. Also, the EC50 in the series with SUDHL5 cells [1] (setting [7]) turned out to be 11 µM.
As for `CCC1OCCCCn2c(C(=O)O)c(CCCOc3cccc4ccccc34)c3ccc(Cl)c(c32)-c2c1nn(C)c2C` (single isomer, unassigned; enantiomer 2) [Example 30, (−)-4-chloro-15-ethyl-2,3-dimethyl-7-{3-[(naphthalen-1-yl)oxy]propyl}-2,10,11,12,13,15-hexahydropyrazolo[4′,3′:9,10][1,6]oxazacycloundecino[8,7,6-hi]indole-8-carboxylic Acid—N-ethylethanamine Salt (Enantiomer 2)], the IC50 on BCL-XL was > 20 µM; with SUDHL5 cells [2] it was 29 µM; in the series on HMC-1-8 cells (setting [6]), 22.6 µM. In the series with SUDHL5 cells [1] (setting [5]), the EC50 was > 33 µM.
Consider `Cc1c2c(nn1C)C(CCO)OCCCCn1c(C(=O)O)c(CCCOc3cccc4ccccc34)c3ccc(Cl)c-2c31` (single isomer, unassigned; enantiomer 2) [Example 32, (−)-4-chloro-15-(2-hydroxyethyl)-2,3-dimethyl-7-{3-[(naphthalen-1-yl)oxy]propyl}-2,10,11,12,13,15-hexahydropyrazolo[4′,3′:9,10][1,6]oxazacycloundecino[8,7,6-hi]indole-8-carboxylic Acid (Enantiomer 2)], for which the IC50 is > 20 µM at BCL-XL, > 33 µM with SUDHL5 cells [2] and > 33 µM with HMC-1-8 cells (setting [4]). In addition, the EC50 in the series with SUDHL5 cells [1] (setting [3]) is > 33 µM.
For `Cc1c2c(nn1C)C(C1CC1)OCCCCn1c(C(=O)O)c(CCCOc3cccc4ccccc34)c3ccc(Cl)c-2c31` (single isomer, unassigned; enantiomer 2) [Example 36, (−)-4-chloro-15-cyclopropyl-2,3-dimethyl-7-{3-[(naphthalen-1-yl)oxy]propyl}-2,10,11,12,13,15-hexahydropyrazolo[4′,3′:9,10][1,6]oxazacycloundecino[8,7,6-hi]indole-8-carboxylic Acid N-ethylethanamine Salt (Enantiomer 2)], the IC50 on BCL-XL is 13.8 µM; with SUDHL5 cells [2] it was 21 µM; in the series on HMC-1-8 cells (setting [6]) it was 19 µM. Besides, the 50% effective concentration (EC50) in the series on SUDHL5 cells [1] (setting [5]) was > 33 µM.
`CCc1c2c(nn1C)C(CCOC)OCCCCn1c(C(=O)O)c(CCCOc3cccc4cc(F)ccc34)c3ccc(Cl)c-2c31` (single isomer, unassigned; enantiomer 2) [Example 43, (−)-4-chloro-3-ethyl-7-{3-[(6-fluoronaphthalen-1-yl)oxy]propyl}-15-(2-methoxyethyl)-2-methyl-2,10,11,12,13,15-hexahydropyrazolo[4′,3′:9,10][1,6]oxazacycloundecino[8,7,6-hi]indole-8-carboxylic Acid—N-ethylethanamine Salt (Enantiomer 2)]: the IC50 on BCL-XL worked out at 17.2 µM; in the series on SUDHL5 cells [2], 18 µM; in the series with HMC-1-8 cells (setting [6]) it was 26.5 µM. For the same molecule, the EC50 with SUDHL5 cells [1] (setting [5]) was found to be 20 µM.
With `CCc1c2c(nn1C)C(CCO)OCCCCn1c(C(=O)O)c(CCCOc3cccc4cc(F)ccc34)c3ccc(Cl)c-2c31` (single isomer, unassigned; enantiomer 2) [Example 46, (−)-4-chloro-3-ethyl-7-{3-[(6-fluoronaphthalen-1-yl)oxy]propyl}-15-(2-hydroxyethyl)-2-methyl-2,10,11,12,13,15-hexahydropyrazolo[4′,3′:9,10][1,6]oxazacycloundecino[8,7,6-hi]indole-8-carboxylic Acid (Enantiomer 2)], the IC50 at BCL-XL was > 20 µM; in the series on SUDHL5 cells [2], 4.3 µM; in the series on HMC-1-8 cells (setting [4]), > 33 µM. Besides, the EC50 in the series on SUDHL5 cells [1] (setting [3]) is 4.9 µM.
Regarding `CCc1c2c(nn1C)C(CCN1CCOCC1)OCCCCn1c(C(=O)O)c(CCCOc3cccc4cc(F)ccc34)c3ccc(F)c-2c31` (single isomer, unassigned; enantiomer 2) [Example 51, (−)-3-ethyl-4-fluoro-7-{3-[(6-fluoronaphthalen-1-yl)oxy]propyl}-2-methyl-15-[2-(morpholin-4-yl)ethyl]-2,10,11,12,13,15-hexahydropyrazolo[4′,3′:9,10][1,6]oxazacycloundecino[8,7,6-hi]indole-8-carboxylic Acid (Enantiomer 2)], the values for the IC50 at BCL-XL, with SUDHL5 cells [2] and in the series with HMC-1-8 cells (setting [4]) were > 20 µM, 3.4 µM and 22 µM, respectively. For the same molecule, in the series on SUDHL5 cells [1] (setting [3]), the EC50 was determined as 5 µM.
Regarding `CCc1c2c(nn1C)C(CCN1CCC(F)(F)C1)OCCCCn1c(C(=O)O)c(CCCOc3cccc4cc(F)ccc34)c3ccc(Cl)c-2c31` (single isomer, unassigned; enantiomer 2) [Example 57, 4-chloro-15-[2-(3,3-difluoropyrrolidin-1-yl)ethyl]-3-ethyl-7-{3-[(6-fluoronaphthalen-1-yl)oxy]propyl}-2-methyl-2,10,11,12,13,15-hexahydropyrazolo[4′,3′:9,10][1,6]oxazacycloundecino[8,7,6-hi]indole-8-carboxylic Acid N-ethylethanamine Salt (Enantiomer 2)], the figures for the IC50 on BCL-XL, in the series on SUDHL5 cells [2] and in the series with HMC-1-8 cells (setting [6]) were > 20 µM, 6.8 µM and 13.6 µM, respectively. Also, the EC50 in the series with SUDHL5 cells [1] (setting [5]) amounted to 7.4 µM.

The values above are taken from US11440923B2, “Substituted macrocyclic indole derivatives” (Bayer Aktiengesellschaft, priority 2017, dated 2022).
